Data reported in US9963464B2, “Macrocyclic compounds” (Bayer Pharma Aktiengesellschaft, priority 2014, dated 2018).
Where two headings read alike, the source gives them in different places.

Columns and labels:
CDK9/CycT1 = biological target: T1, CDK9/CycT1 (Homo sapiens, UniProt P50750); assay: CDK9/CycT1 kinase assay (TR-FRET, Method 1a); assay type: biochemical; details: for IC50: Method 1a, 10 μM ATP; for Selectivity CDK9 over CDK2: IC50 (CDK2)/IC50 (CDK9): Methods 1a and 2a, minimal values where CDK9 IC50 is at the assay limit
T1 construct: Recombinant full-length His-tagged human CDK9 and CycT1; His; purchased Invitrogen PV4131; host or cells: insect cells
T1 sequence (P50750 whole entry): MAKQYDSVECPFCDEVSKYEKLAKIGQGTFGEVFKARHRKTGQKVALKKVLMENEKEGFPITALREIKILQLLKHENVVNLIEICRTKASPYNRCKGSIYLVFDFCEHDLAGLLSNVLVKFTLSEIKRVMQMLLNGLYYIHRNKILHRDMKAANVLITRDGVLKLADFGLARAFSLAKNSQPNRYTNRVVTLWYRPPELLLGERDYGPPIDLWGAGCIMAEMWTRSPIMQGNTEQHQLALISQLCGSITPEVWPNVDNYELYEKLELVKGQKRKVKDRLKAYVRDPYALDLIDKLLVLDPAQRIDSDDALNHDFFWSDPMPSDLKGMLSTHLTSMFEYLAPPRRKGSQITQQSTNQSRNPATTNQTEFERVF
T1 sequence (O60563 whole entry partner): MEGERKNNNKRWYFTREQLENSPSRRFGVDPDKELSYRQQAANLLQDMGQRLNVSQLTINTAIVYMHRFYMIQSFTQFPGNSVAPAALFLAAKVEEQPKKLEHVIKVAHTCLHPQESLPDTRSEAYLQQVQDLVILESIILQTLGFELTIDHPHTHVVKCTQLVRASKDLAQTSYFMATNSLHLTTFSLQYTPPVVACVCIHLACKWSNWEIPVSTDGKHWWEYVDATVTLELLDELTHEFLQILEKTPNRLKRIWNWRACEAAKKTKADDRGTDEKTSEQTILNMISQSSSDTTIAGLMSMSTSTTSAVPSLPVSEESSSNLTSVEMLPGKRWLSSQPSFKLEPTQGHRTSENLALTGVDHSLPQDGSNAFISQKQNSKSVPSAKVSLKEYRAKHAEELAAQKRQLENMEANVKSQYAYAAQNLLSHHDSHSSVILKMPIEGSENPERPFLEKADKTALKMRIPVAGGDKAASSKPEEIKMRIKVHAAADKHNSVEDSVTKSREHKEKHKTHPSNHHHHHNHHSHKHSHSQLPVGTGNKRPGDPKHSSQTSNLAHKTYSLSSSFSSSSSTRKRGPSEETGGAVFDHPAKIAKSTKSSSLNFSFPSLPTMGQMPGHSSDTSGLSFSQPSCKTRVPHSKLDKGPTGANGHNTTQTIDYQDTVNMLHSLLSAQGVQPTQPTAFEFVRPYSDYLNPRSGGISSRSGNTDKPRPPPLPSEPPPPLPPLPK
Source text: 1a. CDK9/CycT1 Kinase Assay:
CDK9/CycT1-inhibitory activity of compounds of the present invention was quantified employing the CDK9/CycT1 TR-FRET assay as described in the following paragraphs:
Recombinant full-length His-tagged human CDK9 and CycT1, expressed in insect cells and purified by Ni-NTA affinity chromatography, were purchased from Invitrogen (Cat. No PV4131). As substrate for the kinase reaction biotinylated peptide biotin-Ttds-YISPLKSPYKISEG (C-terminus in amid form) was used which can be purchased e.g. from the company JERINI Peptide Technologies (Berlin, Germany). For the assay 50 nl of a 100 fold concentrated solution of the test compound in DMSO was pipetted into a black low volume 384 well microtiter plate (Greiner Bio-One, Frickenhausen, Germany), 2 μl of a solution of CDK9/CycT1 in aqueous assay buffer [50 mM Tris/HCl pH 8.0, 10 mM MgCl2, 1.0 mM dithiothreitol, 0.1 mM sodium ortho-vanadate, 0.01% (v/v) Nonidet-P40 (Sigma)] were added and the mixture was incubated for 15 min at 22° C. to allow pre-binding of the test compounds to the enzyme before the start of the kinase reaction. […] The concentration of CDK9/CycT1 was adjusted depending of the activity of the enzyme lot and was chosen appropriate to have the assay in the linear range, typical concentrations were in the range of 1 μg/mL. The reaction was stopped by the addition of 5 μl of a solution of TR-FRET detection reagents (0.2 μM streptavidine-XL665 [Cisbio Bioassays, Codolet, France] and 1 nM anti-RB(pSer807/pSer811)-antibody from BD Pharmingen [#558389] and 1.2 nM LANCE EU-W1024 labeled anti-mouse IgG antibody [Perkin-Elmer, product no. AD0077]) in an aqueous EDTA-solution (100 mM EDTA, 0.2% (w/v) bovine serum albumin in 100 mM HEPES pH 7.5).
The resulting mixture was incubated 1 h at 22° C. to allow the formation of complex between the phosphorylated biotinylated peptide and the detection reagents. Subsequently the amount of phosphorylated substrate was evaluated by measurement of the resonance energy transfer from the Eu-chelate to the streptavidine-XL. Therefore, the fluorescence emissions at 620 nm and 665 nm after excitation at 350 nm was measured in a HTRF reader, e.g. a Rubystar (BMG Labtechnologies, Offenburg, Germany) or a Viewlux (Perkin-Elmer). The ratio of the emissions at 665 nm and at […] was taken as the measure for the amount of phosphorylated substrate. The data were normalised (enzyme reaction without inhibitor=0% inhibition, all other assay components but no enzyme=100% inhibition).

HeLa cells = assay: Proliferation assay HeLa; assay type: cell-based, human; details: 4 days, crystal violet, read-out: Inhibition of HeLa cell proliferation IC50
Procedure: (§1) Cultivated tumour cells (HeLa, human cervical tumour cells, ATCC CCL-2; NCI-H460, human non-small cell lung carcinoma cells, ATCC HTB-177; A2780, human ovarian carcinoma cells, ECACC #93112519; DU 145, hormone-independent human prostate carcinoma cells, ATCC HTB-81; HeLa-MaTu-ADR, multidrug-resistant human cervical carcinoma cells, EPO-GmbH Berlin; Caco-2, human colorectal carcinoma cells, ATCC HTB-37; B16F10, mouse melanoma cells, ATCC CRL-6475) were plated at a density of 5,000 cells/well (DU145, HeLa-MaTu-ADR), 3,000 cells/well (NCI-H460, HeLa), 2,500 cells/well (A2780), 1,500 cells/well (Caco-2), or 1,000 cells/well (B16F10) in a 96-well multititer plate in 200 μL of their respective growth medium supplemented 10% fetal calf serum. After 24 hours, the cells of one plate (zero-point plate) were stained with crystal violet (see below), while the medium of the other plates was replaced by fresh culture medium (200 μl), to which the test substances were added in various concentrations (0 μM, as well as in the range of 0.001-10 μM). The cells were incubated for 4 days in the presence of test substances. Cell proliferation was determined by staining the cells with crystal violet: the cells were fixed by adding 20 μl/measuring point of an 11% glutaric aldehyde solution for 15 minutes at room temperature. After three washing cycles of the fixed cells with water, the plates were dried at room temperature. The cells were stained by adding 100 μl/measuring point of a 0.1% crystal violet solution (pH 3.0). After three washing cycles of the stained cells with water, the plates were dried at room temperature. The dye was dissolved by adding 100 μl/measuring point of a 10% acetic acid solution. The extinction was determined by photometry at a wavelength of 595 nm. The change of cell number, in percent, was calculated by normalization of the measured values to the extinction values of the zero-point plate (=0%) and the extinction of the untreated (0 μm) cells (=100%). The IC50 values (inhibitory concentration at 50% of maximal effect) were determined by means of a 4 parameter fit. Non-adherent MOLM-13 human acute myeloid leukemia cells (DSMZ ACC 554) were seeded at a density of 5,000 cells/well in a 96-well multititer plate in 100 μL of growth medium supplemented 10% fetal calf serum. After 24 hours, cell viability of one plate (zero-point plate) was determined with the Cell Titre-Glo Luminescent Cell Viability Assay (Promega), while 50 μL of test compound containing medium was added to the wells of the other plates (final concentrations in the range of 0.001-1 μM and DMSO controls). Cell viability was assessed after 72-hour exposure with the Cell Titre-Glo Luminescent Cell Viability Assay (Promega). IC50 values (inhibitory concentration at 50% of maximal effect) were determined by means of a 4 parameter fit on measurement data which were normalized to vehicle (DMSO) treated cells (=100%) and measurement readings taken immediately before compound exposure (=0%).

NCI-H460 cells = assay: Proliferation assay NCI-H460; assay type: cell-based, human; details: 4 days, crystal violet, read-out: Inhibition of NCI-H460 cell proliferation IC50
Procedure: as §1

SMILES | IC50 (CDK9/CycT1) [nM] | Selectivity CDK9 over CDK2: IC50 (CDK2)/IC50 (CDK9) (CDK9/CycT1) | IC50 (HeLa cells; Homo sapiens, HeLa, 96 h) [nM] | IC50 (NCI-H460 cells; Homo sapiens, NCI-H460, 96 h) [nM] | IC50 (HeLa cells) [nM] | IC50 (NCI-H460 cells) [nM]
C[S+]([O-])Cc1cc2nc(c1)OCCOc1cc(F)ccc1-c1cc(ncc1F)N2 (racemic) [Example 10, (rac)-14,18-difluoro-7-[(methylsulfinyl)methyl]-2,3-dihydro-10H-9,5-(azeno)-11,15-(metheno)-1,4,10,12-benzodioxadiazacycloheptadecine] | 7.3 | 56.5 | 195 | 393 |  | 
CS(=N)(=O)Cc1cc2nc(c1)OCCCOc1cc(F)ccc1-c1cc(ncc1F)N2 (single isomer, unassigned; enantiomer 2) [Example 7, 15,19-Difluoro-8-[(S-methylsulfonimidoyl)methyl]-3,4-dihydro-2H,11H-10,6-(azeno)-12,16-(metheno)-1,5,11,13-benzodioxadiazacyclooctadecine; Enantiomer 2] | 7.3 | 0.3 |  |  | 31 | 17
CS(=N)(=O)Cc1cc2nc(c1)OCCOc1cc(F)ccc1-c1cc(ncc1F)N2 (racemic) [Example 11, (rac)-14,18-difluoro-7-[(S-methylsulfonimidoyl)methyl]-2,3-dihydro-10H-9,5-(azeno)-11,15-(metheno)-1,4,10,12-benzodioxadiazacycloheptadecine] | 2.5 | 72.6 | 94 | 186 |  | 
CS(=N)(=O)Cc1cc2nc(c1)OCCCOc1cc(F)ccc1-c1cc(ncc1F)N2 (racemic) [Example 5, (rac)-15,19-Difluoro-8-[(S-methylsulfonimidoyl)methyl]-3,4-dihydro-2H,11H-10,6-(azeno)-12,16-(metheno)-1,5,11,13-benzodioxadiazacyclooctadecine] | 3 | 0.65 | 2 | 6 |  | 
CS(=N)(=O)Cc1cc2nc(c1)OCCCOc1cc(F)ccc1-c1cc(ncc1F)N2 (single isomer, unassigned; enantiomer 1) [Example 6, 15,19-Difluoro-8-[(S-methylsulfonimidoyl)methyl]-3,4-dihydro-2H,11H-10,6-(azeno)-12,16-(metheno)-1,5,11,13-benzodioxadiazacyclooctadecine; Enantiomer 1] | 3 | 0.9 | 31 | 14 |  | 

Other lines, results leading:

IC50 (CDK9/CycT1) [nM] | Selectivity CDK9 over CDK2: IC50 (CDK2)/IC50 (CDK9) (CDK9/CycT1) | IC50 (HeLa cells; Homo sapiens, HeLa, 96 h) [nM] | IC50 (NCI-H460 cells; Homo sapiens, NCI-H460, 96 h) [nM] | IC50 (HeLa cells) [nM] | IC50 (NCI-H460 cells) [nM] | SMILES
5.9 | 1.7 | 105 | 395 |  |  | NCCS(=O)(=O)Cc1cc2nc(c1)OCCCOc1cc(F)ccc1-c1cc(ncc1F)N2 [Example 26, 2-({[15,19-difluoro-3,4-dihydro-2H,11H-10,6-(azeno)-12,16-(metheno)-1,5,11,13-benzodioxadiazacyclooctadecin-8-yl]methyl}sulfonyl)ethanamine]
4.8 | 4.1 | 11 | 19 |  |  | CS(=N)(=O)Cc1cc2nc(c1)OCCCCOc1cc(F)ccc1-c1cc(ncc1F)N2 (racemic) [Example 14, (rac)-16,20-difluoro-9-[(S-methylsulfonimidoyl)methyl]-2,3,4,5-tetrahydro-12H-11,7-(azeno)-13,17-(metheno)-1,6,12,14-benzodioxadiazacyclononadecine]
3.8 | 6.8 | 9 | 30 |  |  | CS(=N)(=O)Cc1cc2cc(c1)OCCCOc1cc(F)ccc1-c1nc(ncc1F)N2 (racemic) [Example 15, (rac)-15,19-difluoro-8-[(S-methylsulfonimidoyl)methyl]-3,4-dihydro-2H,11H-12,16-(azeno)-10,6-(metheno)-1,5,11,13-benzodioxadiazacyclooctadecine]
4.3 | 1.3 | 14 | 109 |  |  | CS(=O)(Cc1cc2nc(c1)OCCCOc1cc(F)ccc1-c1cc(ncc1F)N2)=NC(=O)OCCN (racemic) [Example 25, (rac)-2-aminoethyl [{[15,19-difluoro-3,4-dihydro-2H,11H-10,6-(azeno)-12,16-(metheno)-1,5,11,13-benzodioxadiazacyclooctadecin-8-yl]methyl}(methyl)oxido-λ^6-sulfanylidene]carbamate]
3.9 | 14.8 | 10 | 26 |  |  | CS(=O)(Cc1cc2cc(c1)OCCCOc1cc(F)ccc1-c1nc(ncc1F)N2)=NC(=O)C(F)(F)F (racemic) [Example 16, (rac)-N-[{[15,19-difluoro-3,4-dihydro-2H,11H-12,16-(azeno)-10,6-(metheno)-1,5,11,13-benzodioxadiazacyclooctadecin-8-yl]methyl}(methyl)oxido-λ^6-sulfanylidene]-2,2,2-trifluoroacetamide]
16.5 | 6.9 | 281 | 63 |  |  | CSCc1cc2nc(c1)OCCCCOc1cc(F)ccc1-c1cc(ncc1F)N2 [Example 12, 16,20-Difluoro-9-[(methylsulfanyl)methyl]-2,3,4,5-tetrahydro-12H-11,7-(azeno)-13,17-(metheno)-1,6,12,14-benzodioxadiazacyclononadecine]
4.4 | 1.3 | 11 | 31 |  |  | CCNC(=O)N=S(C)(=O)Cc1cc2nc(c1)OCCCOc1cc(F)ccc1-c1cc(ncc1F)N2 (racemic) [Example 17, (rac)-1-[{[15,19-difluoro-3,4-dihydro-2H,11H-10,6-(azeno)-12,16-(metheno)-1,5,11,13-benzodioxadiazacyclooctadecin-8-yl]methyl}(methyl)oxido-λ^6-sulfanylidene]-3-ethylurea]
